Laboratory results as given in paper PMC3800558 (Insect biochemistry and molecular biology, 2013).

Experiments:
[1] = biological target: T1, CquiOR99 (Culex quinquefasciatus, UniProt W0HIQ7); assay type: cell-based
T1 sequence (W0HIQ7 1-389): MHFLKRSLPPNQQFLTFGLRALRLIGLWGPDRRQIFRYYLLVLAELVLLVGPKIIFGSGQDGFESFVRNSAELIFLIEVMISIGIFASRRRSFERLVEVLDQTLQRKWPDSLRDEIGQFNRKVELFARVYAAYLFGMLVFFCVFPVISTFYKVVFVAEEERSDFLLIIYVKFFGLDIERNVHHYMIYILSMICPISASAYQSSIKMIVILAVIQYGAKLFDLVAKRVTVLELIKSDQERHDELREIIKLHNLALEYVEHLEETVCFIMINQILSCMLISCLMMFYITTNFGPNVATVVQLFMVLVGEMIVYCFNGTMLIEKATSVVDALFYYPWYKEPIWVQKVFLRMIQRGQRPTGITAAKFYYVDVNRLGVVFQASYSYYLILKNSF
T1 sequence (Q309I4 1-480 partner): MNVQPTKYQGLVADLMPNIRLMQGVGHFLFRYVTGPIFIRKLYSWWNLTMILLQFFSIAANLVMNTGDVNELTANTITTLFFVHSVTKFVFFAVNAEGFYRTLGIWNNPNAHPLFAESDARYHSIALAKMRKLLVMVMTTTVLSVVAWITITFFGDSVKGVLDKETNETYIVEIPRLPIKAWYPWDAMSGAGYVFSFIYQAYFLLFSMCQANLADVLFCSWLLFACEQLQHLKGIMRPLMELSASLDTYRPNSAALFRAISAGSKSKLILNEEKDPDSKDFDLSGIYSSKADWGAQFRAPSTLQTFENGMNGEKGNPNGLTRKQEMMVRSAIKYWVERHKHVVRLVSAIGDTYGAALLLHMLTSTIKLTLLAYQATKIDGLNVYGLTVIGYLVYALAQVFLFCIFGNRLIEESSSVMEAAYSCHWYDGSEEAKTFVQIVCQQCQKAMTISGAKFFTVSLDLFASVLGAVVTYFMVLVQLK

[2] = biological target: T2, CquiOR37 (Culex quinquefasciatus, UniProt W0HHK8); assay type: cell-based
T2 sequence (W0HHK8 1-385): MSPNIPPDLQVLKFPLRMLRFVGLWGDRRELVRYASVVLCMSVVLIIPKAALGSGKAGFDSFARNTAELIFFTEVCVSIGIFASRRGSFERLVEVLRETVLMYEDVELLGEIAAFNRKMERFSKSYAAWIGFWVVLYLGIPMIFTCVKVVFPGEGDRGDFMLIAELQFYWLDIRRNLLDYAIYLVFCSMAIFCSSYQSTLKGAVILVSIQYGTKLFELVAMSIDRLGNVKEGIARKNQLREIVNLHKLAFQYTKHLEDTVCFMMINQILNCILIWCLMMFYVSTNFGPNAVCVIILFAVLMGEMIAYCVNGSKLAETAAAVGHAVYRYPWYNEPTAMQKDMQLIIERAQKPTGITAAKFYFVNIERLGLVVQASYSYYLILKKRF
T2 sequence (Q309I4 1-480 partner): T1 sequence (Q309I4 1-480 partner)

| SMILES | EC50 [1] [µM] | EC50 [2] [µM] |
| --- | --- | --- |
| CCc1ccc(O)cc1 [4-ethylphenol] | 0.74 | 18.2 |
| Cc1ccc(O)cc1 [4-methylphenol] | 14.4 | 6.4 |
